Source: ChEMBL document CHEMBL1136036, “Targeting thrombin and factor VIIa: design, synthesis, and inhibitory activity of functionally relevant indolizidinones” (Bioorg Med Chem Lett, 2002)

Legend:
Coagulation factor XI [1] = molecular target: T1, Coagulation factor XI (Homo sapiens, UniProt P03951); experiment: Compound was tested for inhibitory activity against Coagulation factor XIa
Prothrombin = Prothrombin (Homo sapiens, UniProt P00734); experiment: Compound was tested for inhibitory activity against Thrombin
Plasminogen = Plasminogen (Homo sapiens, UniProt P00747); experiment: Compound was tested for inhibitory activity against Plasmin
Sequence of Plasminogen (P00747 97-580 limits assumed): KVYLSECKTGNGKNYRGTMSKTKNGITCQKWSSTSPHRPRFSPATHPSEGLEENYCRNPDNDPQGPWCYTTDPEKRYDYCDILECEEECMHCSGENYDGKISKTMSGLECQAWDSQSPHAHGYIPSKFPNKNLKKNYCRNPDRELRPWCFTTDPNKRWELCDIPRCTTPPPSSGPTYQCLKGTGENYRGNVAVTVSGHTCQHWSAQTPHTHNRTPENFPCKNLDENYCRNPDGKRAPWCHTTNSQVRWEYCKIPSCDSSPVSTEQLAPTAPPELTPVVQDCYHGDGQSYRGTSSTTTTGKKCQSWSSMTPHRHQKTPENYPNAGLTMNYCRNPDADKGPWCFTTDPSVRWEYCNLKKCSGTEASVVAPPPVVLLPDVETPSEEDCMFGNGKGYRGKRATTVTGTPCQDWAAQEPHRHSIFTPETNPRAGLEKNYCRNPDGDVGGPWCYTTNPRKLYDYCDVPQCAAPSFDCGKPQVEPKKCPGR
Sequence of Plasminogen (P00747 581-810 limits assumed): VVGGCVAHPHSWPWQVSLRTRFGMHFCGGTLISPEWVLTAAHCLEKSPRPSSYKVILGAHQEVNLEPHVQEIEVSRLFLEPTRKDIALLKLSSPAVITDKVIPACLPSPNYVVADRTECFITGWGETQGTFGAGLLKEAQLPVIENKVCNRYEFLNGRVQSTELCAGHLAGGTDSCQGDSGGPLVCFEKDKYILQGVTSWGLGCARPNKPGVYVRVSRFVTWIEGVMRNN

Coagulation factor VII = molecular target: T2, Coagulation factor VII (Homo sapiens, UniProt P08709); experiment: Compound was tested for inhibitory activity against Coagulation factor VIIa
T2 sequence (P08709 whole entry): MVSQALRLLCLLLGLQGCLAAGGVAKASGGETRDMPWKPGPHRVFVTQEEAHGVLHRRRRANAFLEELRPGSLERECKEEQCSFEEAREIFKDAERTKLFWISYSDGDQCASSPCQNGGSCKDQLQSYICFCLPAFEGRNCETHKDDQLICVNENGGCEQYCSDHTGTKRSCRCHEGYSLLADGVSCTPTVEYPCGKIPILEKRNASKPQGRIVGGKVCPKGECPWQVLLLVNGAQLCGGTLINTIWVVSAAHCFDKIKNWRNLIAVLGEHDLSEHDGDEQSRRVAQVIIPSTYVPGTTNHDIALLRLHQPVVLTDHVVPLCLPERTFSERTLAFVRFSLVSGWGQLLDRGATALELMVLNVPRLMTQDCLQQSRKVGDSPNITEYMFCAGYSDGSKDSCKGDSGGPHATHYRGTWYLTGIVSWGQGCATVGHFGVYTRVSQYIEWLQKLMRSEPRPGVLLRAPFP

Coagulation factor XI [2] = molecular target: T1, Coagulation factor XI; experiment: Compound was tested for inhibitory activity against Coagulation factor XIa at 8 uM

T1 sequence (P03951 19-387 limits assumed): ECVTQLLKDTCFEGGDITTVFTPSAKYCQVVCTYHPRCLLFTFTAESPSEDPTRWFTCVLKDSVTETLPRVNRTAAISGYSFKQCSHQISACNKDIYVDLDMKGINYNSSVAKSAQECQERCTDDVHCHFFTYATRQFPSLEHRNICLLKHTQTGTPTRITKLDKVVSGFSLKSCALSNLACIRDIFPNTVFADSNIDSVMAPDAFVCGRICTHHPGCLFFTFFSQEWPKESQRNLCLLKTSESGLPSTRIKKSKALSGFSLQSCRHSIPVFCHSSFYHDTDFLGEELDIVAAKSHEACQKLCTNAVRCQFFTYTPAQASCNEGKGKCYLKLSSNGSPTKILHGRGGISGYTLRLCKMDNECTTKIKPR
T1 sequence (P03951 388-625 limits assumed): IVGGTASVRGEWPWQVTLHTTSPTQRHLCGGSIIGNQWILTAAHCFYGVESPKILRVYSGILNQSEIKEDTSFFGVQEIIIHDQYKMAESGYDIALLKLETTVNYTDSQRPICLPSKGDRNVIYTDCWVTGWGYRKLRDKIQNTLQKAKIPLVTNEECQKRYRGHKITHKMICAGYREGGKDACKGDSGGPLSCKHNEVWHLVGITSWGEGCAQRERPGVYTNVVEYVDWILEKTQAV

SMILES	IC50 (Coagulation factor XI [1]) [µM]	IC50 (Prothrombin) [µM]	IC50 (Plasminogen) [µM]	IC50 (Coagulation factor VII) [µM]	inhibition (Coagulation factor XI [2]) [%]
C=C(C)C[C@]1(N)C[C@H](OC)[C@@H]2[C@H](CC)CC(C(=O)NCc3ccc(C(=N)N)cc3)N2C1=O (stereo partly specified)	> 133	0.38	37	1.6	–
N=C(N)c1ccc(CNC(=O)C2CC[C@H]3CC[C@@](O)(Cc4ccccc4)C(=O)N23)cc1 (stereo partly specified)	–	–	–	1.1	78
CC[C@@H]1CC(C(=O)NCc2ccc(C(=N)N)cc2)N2C(=O)[C@](N)(CC3=CCCCC3)C[C@H](OC)[C@H]12 (stereo partly specified)	> 133	0.17	141	4.6	–
CC[C@@H]1CC(C(=O)NCc2ccc(C(=N)N)cc2)N2C(=O)[C@@](N)(CC3=CCCCC3)C[C@H](OC)[C@H]12 (stereo partly specified)	–	–	–	109	–
C[C@]1(O)CC[C@@H]2CCC(C(=O)NCc3ccc(C(=N)N)cc3)N2C1=O (stereo partly specified)	–	0.27	–	> 10	20

The next compounds have a lower IC50 (Coagulation factor VII) than those just listed; values first:

IC50 (Coagulation factor XI [1]) [µM]	IC50 (Prothrombin) [µM]	IC50 (Plasminogen) [µM]	IC50 (Coagulation factor VII) [µM]	SMILES	inhibition (Coagulation factor XI [2]) [%]
> 133	–	11	0.42	CC[C@@H]1CC(C(=O)NCc2ccc(C(=N)N)cc2)N2C(=O)[C@](N)(Cc3ccccc3)C[C@H](OC)[C@H]12 (stereo partly specified)	–
35	0.11	71	0.52	CO[C@H]1C[C@@](O)(Cc2ccccc2)C(=O)N2C(C(=O)NCc3ccc(C(=N)N)cc3)CC[C@@H]12 (stereo partly specified)	–
